Legend:
[1] = target: T1, FLT3 kinase (Homo sapiens, UniProt P36888); assay: Competition binding assay, FLT3 Kd
T1 construct: made in house; host or cells: T7 phage display or HEK-293 cells
T1 sequence (P36888 27-993): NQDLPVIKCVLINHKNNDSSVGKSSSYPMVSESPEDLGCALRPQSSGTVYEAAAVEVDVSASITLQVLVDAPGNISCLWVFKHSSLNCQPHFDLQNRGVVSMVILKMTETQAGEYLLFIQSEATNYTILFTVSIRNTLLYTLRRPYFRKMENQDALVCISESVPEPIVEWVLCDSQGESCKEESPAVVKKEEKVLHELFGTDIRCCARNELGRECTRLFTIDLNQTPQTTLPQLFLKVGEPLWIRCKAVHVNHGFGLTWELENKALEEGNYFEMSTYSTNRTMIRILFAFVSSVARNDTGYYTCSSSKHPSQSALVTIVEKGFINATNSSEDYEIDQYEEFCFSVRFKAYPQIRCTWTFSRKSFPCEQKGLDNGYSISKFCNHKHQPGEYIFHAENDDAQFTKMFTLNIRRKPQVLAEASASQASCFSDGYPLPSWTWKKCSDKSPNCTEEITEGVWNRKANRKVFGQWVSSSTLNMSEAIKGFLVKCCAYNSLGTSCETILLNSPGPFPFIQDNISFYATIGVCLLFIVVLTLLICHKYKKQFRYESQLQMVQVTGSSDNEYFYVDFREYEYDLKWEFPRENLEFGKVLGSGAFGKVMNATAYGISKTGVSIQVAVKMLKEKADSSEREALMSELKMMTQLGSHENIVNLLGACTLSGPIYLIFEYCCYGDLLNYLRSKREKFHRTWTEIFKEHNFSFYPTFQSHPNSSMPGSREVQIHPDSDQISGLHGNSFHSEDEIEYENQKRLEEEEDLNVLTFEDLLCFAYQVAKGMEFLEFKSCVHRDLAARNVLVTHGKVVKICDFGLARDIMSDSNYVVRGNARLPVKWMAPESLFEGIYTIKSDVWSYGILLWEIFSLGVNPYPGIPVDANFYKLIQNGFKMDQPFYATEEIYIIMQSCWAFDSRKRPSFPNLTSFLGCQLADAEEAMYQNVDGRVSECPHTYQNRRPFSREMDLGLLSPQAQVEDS
Method: (§1) In certain embodiments, competition binding assays were performed as described in Fabian et al., Nature Biotechnology 2005, 23,329-336.
(§2) Competition binding assays used herein were developed, validated and performed as described in Fabian et al., Nature Biotechnology 2005, 23,329-336. Kinases were produced as fusions to T7 phage (See, Fabian et al. or WO04/015142) or alternatively, the kinases were expressed in HEK-293 cells and subsequently tagged with DNA for PCR detection (See, WO08/005,310). For the binding assays, streptavidin-coated magnetic beads were treated with biotinylated affinity ligands for 30 min at room temperature to generate affinity resins. The liganded beads were blocked with excess biotin and washed with blocking buffer (SeaBlock (Pierce), 1% BSA, 0.05% Tween 20, 1 mM DTT) to remove unbound ligand and to reduce non-specific binding. Binding reactions were assembled by combining kinase, liganded affinity beads, and test compounds in 1× binding buffer (20% SeaBlock, 0.17×PBS, 0.05% Tween 20, 6 mM DTT). Test compounds were prepared as 100× stocks in DMSO and diluted into the aqueous environment. Kds were determined using an eleven point threefold serial dilutions. DMSO or control compounds were was added to control assays lacking a test compound. Primary screen assays were performed in polypropylene 384-well plates in a final volume of 20-40 μL, while Kd determinations were performed in polystyrene 96-well plates in a final volume of 135 μL. The assay plates were incubated at room temperature with shaking for 1 hour to allow the binding reactions to reach equilibrium, and the affinity beads were washed extensively with wash buffer (1×PBS, 0.05% Tween 20) to remove unbound protein. The beads were then resuspended in elution buffer (1×PBS, 0.05% Tween 20, 0.5 μM non-biotinylated affinity ligand) and incubated at room temperature with shaking for 30 min. The kinase concentration in the eluates was measured by quantitative PCR.

[2] = target: T2, KIT kinase (Homo sapiens, UniProt P10721); assay: Competition binding assay, KIT Kd
T2 construct: made in house; host or cells: T7 phage display or HEK-293 cells
Method: as §1, §2

[3] = system: MV4-11 cells; assay: MV4-11 cell proliferation assay (Alamar Blue); type: cell-based; settings: Homo sapiens, MV4-11, 72 h, 3 days incubation
Method: The compounds disclosed herein were tested in an MV4-11 cell proliferation assay to determine their cellular potency against Flt3. MV4-11 cells carry ITD mutation within juxtamembrane domain of Flt3 kinase which renders the kinase constitutively active. […] This assay measures the potency of compounds as Flt3 inhibitors by measuring the reduction of Alamar Blue reagent by viable cells.
MV4-11 cells were grown in an incubator at 37° C. under 5% CO2 in Iscove's media (Celgro) with 10% FBS. The cell density was kept between 1e5 and 8e5 cells/mL.
On day one of the experiment, cells were harvested and spun at 500 g for 5 min at 4° C., the supernatant aspirated and the cells resuspended in Iscove's media with 0.5% FBS. Cell density was maintained at 7.5e5 to achieve maximum viability of the cells. The resuspended cells were incubated at 37° C. in 5% CO2 overnight.
On day two of the experiment, cells were diluted to 6.4e5/mL with Iscove's media with 0.5% FBS. 100 μL of the cell suspension (64,000 cells) were aliquoted into each well of a 96-well TC-treated plate. Compounds were added at 9 different concentrations, with half-log intervals alongside a control reference compound serving as a positive control. Final DMSO concentration was kept at 0.5% and final volume at 200 μL. The cells were then incubated at 37° C. under 5% CO2 for 3 days.
On day five of the experiment, 40 μL of Alamar Blue reagent was added to each well and the mixture was allowed to incubate for 3 hours. Alamar Blue fluorescence was measured using SoftMax Pro software at 560 nm (excitation) and 590 nm (emission). IC50s were generated as an average of duplicates and represents the concentration of test compound that achieves 50% inhibition of cellular proliferation compared to negative control.

[4] = target: T3, CSF-1R kinase (Homo sapiens, UniProt P07333); assay: Competition binding assay, CSF-1R Kd
T3 construct: made in house; host or cells: T7 phage display or HEK-293 cells
Method: as §1, §2

T3 sequence (P07333 20-972): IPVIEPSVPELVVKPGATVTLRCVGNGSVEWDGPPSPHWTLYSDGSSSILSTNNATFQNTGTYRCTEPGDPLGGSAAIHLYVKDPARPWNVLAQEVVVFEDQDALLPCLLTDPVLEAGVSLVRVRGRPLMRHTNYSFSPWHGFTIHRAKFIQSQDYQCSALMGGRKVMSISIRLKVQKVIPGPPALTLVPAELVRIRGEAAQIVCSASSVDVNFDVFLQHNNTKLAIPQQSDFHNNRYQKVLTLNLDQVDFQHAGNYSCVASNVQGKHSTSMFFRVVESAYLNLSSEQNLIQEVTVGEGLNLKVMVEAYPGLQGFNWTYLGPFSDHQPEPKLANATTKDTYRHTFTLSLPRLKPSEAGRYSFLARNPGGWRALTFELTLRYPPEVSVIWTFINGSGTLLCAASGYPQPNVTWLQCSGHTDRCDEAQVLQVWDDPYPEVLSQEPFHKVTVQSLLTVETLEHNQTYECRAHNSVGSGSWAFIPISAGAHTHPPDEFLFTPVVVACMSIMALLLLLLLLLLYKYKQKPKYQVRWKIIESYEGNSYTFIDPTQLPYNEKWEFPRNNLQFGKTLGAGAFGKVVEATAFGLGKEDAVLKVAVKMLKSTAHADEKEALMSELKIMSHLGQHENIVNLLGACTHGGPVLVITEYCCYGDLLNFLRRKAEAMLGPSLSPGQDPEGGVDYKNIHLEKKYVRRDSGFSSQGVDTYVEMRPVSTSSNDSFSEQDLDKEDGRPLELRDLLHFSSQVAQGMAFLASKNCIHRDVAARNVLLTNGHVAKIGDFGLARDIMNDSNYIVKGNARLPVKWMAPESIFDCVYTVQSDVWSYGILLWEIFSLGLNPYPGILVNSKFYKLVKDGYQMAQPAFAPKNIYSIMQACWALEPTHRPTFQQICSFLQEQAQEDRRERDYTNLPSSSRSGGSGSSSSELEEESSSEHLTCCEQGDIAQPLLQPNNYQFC
T2 sequence (P10721 26-976): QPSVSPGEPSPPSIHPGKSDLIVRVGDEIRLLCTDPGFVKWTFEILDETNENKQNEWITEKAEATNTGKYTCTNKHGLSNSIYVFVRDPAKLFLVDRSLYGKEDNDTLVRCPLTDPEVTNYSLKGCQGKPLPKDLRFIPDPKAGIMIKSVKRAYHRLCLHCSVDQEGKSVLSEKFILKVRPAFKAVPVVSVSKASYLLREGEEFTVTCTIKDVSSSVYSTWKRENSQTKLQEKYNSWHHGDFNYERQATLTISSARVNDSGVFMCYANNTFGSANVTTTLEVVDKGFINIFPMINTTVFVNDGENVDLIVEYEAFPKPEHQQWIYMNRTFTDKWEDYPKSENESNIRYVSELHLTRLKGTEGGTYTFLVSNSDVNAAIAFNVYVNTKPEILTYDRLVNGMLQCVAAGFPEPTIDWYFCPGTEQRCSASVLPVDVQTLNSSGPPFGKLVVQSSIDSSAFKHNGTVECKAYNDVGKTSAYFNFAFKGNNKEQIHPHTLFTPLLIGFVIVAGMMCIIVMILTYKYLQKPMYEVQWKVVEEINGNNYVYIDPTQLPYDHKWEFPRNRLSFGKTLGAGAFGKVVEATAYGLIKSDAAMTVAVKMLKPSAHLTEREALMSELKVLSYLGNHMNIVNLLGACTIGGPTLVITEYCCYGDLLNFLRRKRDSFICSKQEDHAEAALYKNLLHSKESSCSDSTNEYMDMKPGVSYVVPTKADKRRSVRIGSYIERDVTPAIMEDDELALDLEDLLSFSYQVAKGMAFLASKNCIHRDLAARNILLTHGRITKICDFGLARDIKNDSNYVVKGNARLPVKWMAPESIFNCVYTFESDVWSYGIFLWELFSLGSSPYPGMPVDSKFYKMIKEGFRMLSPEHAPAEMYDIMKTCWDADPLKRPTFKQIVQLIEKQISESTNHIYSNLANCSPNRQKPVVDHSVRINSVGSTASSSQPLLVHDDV

Row | Compound | Kd [1] | Kd [2] | IC50 [3] | Kd [4]
1 | CC(C)(F)c1cc(NC(=O)Nc2ccc(-c3ccc(N)nc3)cn2)on1 [Example 42, 1-(6′-amino-3,3′-bipyridin-6-yl)-3-(3-(2-fluoropropan-2-yl)isoxazol-5-yl)urea] | 1 to 10 nM | ≤ 1 nM | 10 to 100 nM | ≤ 10 nM
2 | COc1cc(-c2ccc(N)nc2)ccc1NC(=O)Nc1cc(C(C)(CF)CF)on1 [Example 68, 5-(4-(3-(5-(1,3-difluoro-2-methylpropan-2-yl)isoxazol-3-yl)ureido)-3-methoxyphenyl)pyridin-2-aminium methanesulfonate] | 1 to 10 nM | 1 to 10 nM | 10 to 100 nM | ≤ 10 nM
3 | COc1cc(-c2ccc(N)nc2)ccc1NC(=O)Nc1cc(C(C)(C)C)on1 [Example 69, 5-(4-(3-(5-tert-butylisoxazol-3-yl)ureido)-3-methoxyphenyl)pyridin-2-aminium methanesulfonate] | 1 to 10 nM | ≤ 1 nM | 10 to 100 nM | ≤ 10 nM
4 | CC(C)(C)c1cc(NC(=O)Nc2ccc(-c3ccc(N)nc3)cc2)on1 [Example 70, 5-(4-(3-(3-tert-butylisoxazol-5-yl)ureido)phenyl)pyridin-2-aminium methanesulfonate] | 1 to 10 nM | 1 to 10 nM | ≤ 1 nM | ≤ 10 nM
5 | CC(C)(CO)c1cc(NC(=O)Nc2ccc(-c3ccc(N)nc3)cc2)on1 [Example 81, 5-(4-(3-(3-(1-hydroxy-2-methylpropan-2-yl)isoxazol-5-yl)ureido)phenyl)pyridin-2-aminium methanesulfonate] | 1 to 10 nM | 1 to 10 nM | 10 to 100 nM | ≤ 10 nM
6 | Cn1nc(C(C)(C)CO)cc1NC(=O)Nc1ccc(-c2ccc(N)nc2)cc1 [Example 82, 5-(4-(3-(3-(1-hydroxy-2-methylpropan-2-yl)-1-methyl-1H-pyrazol-5-yl)ureido)phenyl)pyridin-2-aminium methanesulfonate] | 1 to 10 nM | 1 to 10 nM | 100 to 500 nM | 10 to 100 nM
7 | CC(C)(CO)c1cc(NC(=O)Cc2ccc(-c3ccc(N)nc3)cc2)on1 [Example 83, 5-(4-(2-((3-(1-hydroxy-2-methylpropan-2-yl)isoxazol-5-yl)amino)-2-oxoethyl)phenyl)pyridin-2-aminium methanesulfonate] | ≤ 1 nM | 1 to 10 nM | 10 to 100 nM | ≤ 10 nM
8 | CC(C)(C)c1cc(NC(=O)Cc2ccc(-c3ccc(N)nc3)cc2)on1 [Example 84, 5-(4-(2-(3-tert-butylisoxazol-5-ylamino)-2-oxoethyl)phenyl)pyridin-2-aminium methanesulfonate] | ≤ 1 nM | 1 to 10 nM | ≤ 1 nM | ≤ 10 nM
9 | Cc1cc(-c2ccc(CC(=O)Nc3cc(C(C)(C)C)on3)cc2)cnc1N [Example 85, 5-(4-(2-(5-tert-butylisoxazol-3-ylamino)-2-oxoethyl)phenyl)-3-methylpyridin-2-aminium methanesulfonate] | ≤ 1 nM | 1 to 10 nM | ≤ 1 nM | ≤ 10 nM
10 | Cc1cc(N)ncc1-c1ccc(CC(=O)Nc2cc(C(C)(C)C)on2)cc1 [Example 86, 5-(4-(2-(5-tert-butylisoxazol-3-ylamino)-2-oxoethyl)phenyl)-4-methylpyridin-2-aminium methanesulfonate] | ≤ 1 nM | 1 to 10 nM | 10 to 100 nM | 10 to 100 nM

Now from value to molecule:

Row | Kd [1] | Kd [2] | IC50 [3] | Kd [4] | Compound
11 | ≤ 1 nM | ≤ 1 nM | 1 to 10 nM | ≤ 10 nM | CC(C)(c1cc(NC(=O)Nc2ccc(-c3ccc(N)nc3)cn2)no1)C(F)(F)F [Example 43, 1-(6′-amino-3,3′-bipyridin-6-yl)-3-(5-(1,1,1-trifluoro-2-methylpropan-2-yl)isoxazol-3-yl)urea]
12 | ≤ 1 nM | 1 to 10 nM | ≤ 1 nM | ≤ 10 nM | CC(C)(c1cc(NC(=O)Cc2ccc(-c3ccc(N)nc3)cc2)no1)C(F)(F)F [Example 72, 5-(4-(2-oxo-2-(5-(1,1,1-trifluoro-2-methylpropan-2-yl)isoxazol-3-ylamino)ethyl)phenyl)pyridin-2-aminium acetate]
13 | ≤ 1 nM | 1 to 10 nM | ≤ 1 nM | ≤ 10 nM | CC(C)(C)c1cc(NC(=O)Cc2ccc(-c3cnc(N)nc3)cc2)no1 [Example 74, 2-(4-(2-aminopyrimidin-5-yl)phenyl)-N-(5-tert-butylisoxazol-3-yl)acetamide]
14 | ≤ 1 nM | 1 to 10 nM | ≤ 1 nM | ≤ 10 nM | CC(C)(C)c1cc(NC(=O)Cc2ccc(-c3cnc(NCCN4CCOCC4)nc3)cc2)no1 [Example 75, N-(5-tert-butylisoxazol-3-yl)-2-(4-(2-(2-morpholinoethylamino)pyrimidin-5-yl)phenyl)acetamide]
15 | ≤ 1 nM | ≤ 1 nM | 1 to 10 nM | ≤ 10 nM | CC(C)(C)c1cc(NC(=O)Cc2ccc(-c3ccc(N)nc3)cn2)no1 [Example 76, 2-(6′-amino-3,3′-bipyridin-6-yl)-N-(5-tert-butylisoxazol-3-yl)acetamide]
16 | ≤ 1 nM | 1 to 10 nM | 1 to 10 nM | ≤ 10 nM | CC(C)(C)c1cc(NC(=O)Cc2ccc(-c3cnc(N)nc3)cn2)no1 [Example 77, 2-(5-(2-aminopyrimidin-5-yl)pyridin-2-yl)-N-(5-tert-butylisoxazol-3-yl)acetamide]
17 | ≤ 1 nM | 1 to 10 nM | ≤ 1 nM | ≤ 10 nM | CC(C)(C)c1cc(NC(=O)Cc2ccc(-c3cnc(N)nc3)cc2F)no1 [Example 79, 2-(4-(2-aminopyrimidin-5-yl)-2-fluorophenyl)-N-(5-tert-butylisoxazol-3-yl)acetamide]
18 | ≤ 1 nM | ≤ 1 nM | 1 to 10 nM | ≤ 10 nM | CC(C)(CO)c1cc(NC(=O)Nc2ccc(-c3ccc(N)nc3)cc2)no1 [Example 80, 1-(4-(6-aminopyridin-3-yl)phenyl)-3-(5-(1-hydroxy-2-methylpropan-2-yl)isoxazol-3-yl)urea]

— patent US20130035326A1 (AMBIT BIOSCIENCES CORPORATION, priority 2009, published 2013)
